Data published in paper PMC5218480 (PLoS ONE, 2017).

Test system: MV-4-11 cells
Assay: Gene expression microarray analysis (Affymetrix PrimeView) and GSEA
Type: cell-based, human
Set-up: RFU PODN (11730768_x_at) / Fold change /veh PODN (11730768_x_at) / RFU LINC00158 (11744669_a_at) / Fold change /veh LINC00158 (11744669_a_at) / RFU DUSP10 (11751237_a_at) / Fold change /veh DUSP10 (11751237_a_at) / RFU ID3 (11757404_x_at) / Fold change /veh ID3 (11757404_x_at) / RFU PLEKHG5 (11737974_s_at) / Fold change /veh PLEKHG5 (11737974_s_at) / RFU LRRC4B (11730491_at) / Fold change /veh LRRC4B (11730491_at) / RFU GIMAP4 (11747438_a_at) / Fold change /veh GIMAP4 (11747438_a_at) / RFU KRT8 (11758183_x_at) / Fold change /veh KRT8 (11758183_x_at) / RFU CNN1 (11734310_a_at) / Fold change /veh CNN1 (11734310_a_at) / RFU VPS37D (11726825_at) / Fold change /veh VPS37D (11726825_at) / RFU C10orf10 (11716522_x_at) / Fold change /veh C10orf10 (11716522_x_at) / RFU KIR2DL2 /// KIR2DL4 /// KIR2DL5A /// KIR2DL5B /// KIR2DS1 /// KIR2DS2 /// KIR2DS3 /// KIR2DS4 /// KIR3DL3 /// KIR3DL3 /// KIR3DS1 (11738374_at) / Fold change /veh KIR2DL2 /// KIR2DL4 /// KIR2DL5A /// KIR2DL5B /// KIR2DS1 /// KIR2DS2 /// KIR2DS3 /// KIR2DS4 /// KIR3DL3 /// KIR3DL3 /// KIR3DS1 (11738374_at) / RFU C1QL1 (11718748_at) / Fold change /veh C1QL1 (11718748_at) / RFU TMPRSS4 (11747572_a_at) / Fold change /veh TMPRSS4 (11747572_a_at) / RFU HAMP (11756126_x_at) / Fold change /veh HAMP (11756126_x_at) / RFU RNFT2 (11725882_a_at) / Fold change /veh RNFT2 (11725882_a_at) / RFU NR4A2 (11747474_a_at) / Fold change /veh NR4A2 (11747474_a_at) / RFU ABCC12 (11746883_a_at) / Fold change /veh ABCC12 (11746883_a_at) / RFU TMEM136 (11760407_x_at) / Fold change /veh TMEM136 (11760407_x_at) / RFU CLDN22 /// WWC2 (11732394_at) / Fold change /veh CLDN22 /// WWC2 (11732394_at) / RFU HLA-DPB1 (11760878_x_at) / Fold change /veh HLA-DPB1 (11760878_x_at) / RFU SPINT1 (11716480_a_at) / Fold change /veh SPINT1 (11716480_a_at) / RFU GAP43 (11754022_s_at) / Fold change /veh GAP43 (11754022_s_at) / RFU A4GNT (11735810_at) / Fold change /veh A4GNT (11735810_at) / RFU PRB3 (11715151_x_at) / Fold change /veh PRB3 (11715151_x_at) / RFU TUBB4B (11761932_at) / Fold change /veh TUBB4B (11761932_at) / RFU CAPN14 (11732068_a_at) / Fold change /veh CAPN14 (11732068_a_at) / RFU TMCC2 (11721928_a_at) / Fold change /veh TMCC2 (11721928_a_at) / RFU IRGQ (11745062_a_at) / Fold change /veh IRGQ (11745062_a_at) / RFU FAM174B (11720279_a_at) / Fold change /veh FAM174B (11720279_a_at) / RFU TMPRSS4 (11748680_a_at) / Fold change /veh TMPRSS4 (11748680_a_at) / RFU FAM212B (11763350_a_at) / Fold change /veh FAM212B (11763350_a_at) / RFU PLEKHG5 (11743358_a_at) / Fold change /veh PLEKHG5 (11743358_a_at) / RFU ZSCAN30 (11745921_a_at) / Fold change /veh ZSCAN30 (11745921_a_at) / RFU CMKLR1 (11741424_a_at) / Fold change /veh CMKLR1 (11741424_a_at) / RFU LOC101060620 /// MAPK8IP1 (11723275_at) / Fold change /veh LOC101060620 /// MAPK8IP1 (11723275_at) / RFU SPTSSB (11747773_x_at) / Fold change /veh SPTSSB (11747773_x_at) / RFU PRSS12 (11739890_at) / Fold change /veh PRSS12 (11739890_at) / RFU BIN1 (11741810_x_at) / Fold change /veh BIN1 (11741810_x_at) / RFU WNT11 (11732464_a_at) / Fold change /veh WNT11 (11732464_a_at) / RFU C10orf10 (11716521_a_at) / Fold change /veh C10orf10 (11716521_a_at) / RFU C5orf56 (11738089_at) / Fold change /veh C5orf56 (11738089_at) / RFU CYB561 (11721691_x_at) / Fold change /veh CYB561 (11721691_x_at) / RFU ANKRD19P (11752326_a_at) / Fold change /veh ANKRD19P (11752326_a_at) / RFU OR2T12 /// OR2T33 /// OR2T8 (11738714_s_at) / Fold change /veh OR2T12 /// OR2T33 /// OR2T8 (11738714_s_at) / RFU VCAN (11748164_a_at) / Fold change /veh VCAN (11748164_a_at) / RFU JSRP1 (11732532_at) / Fold change /veh JSRP1 (11732532_at) / RFU KRTAP10-11 (11738290_x_at) / Fold change /veh KRTAP10-11 (11738290_x_at) / RFU MYO3A (11730013_a_at) / Fold change /veh MYO3A (11730013_a_at) / RFU EBF3 (11725865_a_at) / Fold change /veh EBF3 (11725865_a_at) / RFU CAMK2N1 (11719241_x_at) / Fold change /veh CAMK2N1 (11719241_x_at) / RFU C5orf56 (11738088_a_at) / Fold change /veh C5orf56 (11738088_a_at) / RFU OLFML3 (11715873_a_at) / Fold change /veh OLFML3 (11715873_a_at) / RFU LOC100653217 /// NTM (11731650_a_at) / Fold change /veh LOC100653217 /// NTM (11731650_a_at) / RFU MAPK11 (11762145_a_at) / Fold change /veh MAPK11 (11762145_a_at) / RFU FIZ1 (11724087_x_at) / Fold change /veh FIZ1 (11724087_x_at) / RFU OASL (11726364_x_at) / Fold change /veh OASL (11726364_x_at) / RFU SOX15 (11748057_x_at) / Fold change /veh SOX15 (11748057_x_at) / RFU CD79A (11719716_a_at) / Fold change /veh CD79A (11719716_a_at) / RFU HIST1H1D (11736915_at) / Fold change /veh HIST1H1D (11736915_at) / RFU CASKIN2 (11723855_a_at) / Fold change /veh CASKIN2 (11723855_a_at) / RFU LOC730098 (11760151_x_at) / Fold change /veh LOC730098 (11760151_x_at) / RFU OR4N2 (11742367_at) / Fold change /veh OR4N2 (11742367_at) / RFU PRRT2 (11749266_a_at) / Fold change /veh PRRT2 (11749266_a_at) / RFU SNX32 (11753110_a_at) / Fold change /veh SNX32 (11753110_a_at) / RFU CDHR5 (11726645_a_at) / Fold change /veh CDHR5 (11726645_a_at) / RFU RCAN1 (11760418_a_at) / Fold change /veh RCAN1 (11760418_a_at) / RFU FAM167A (11723789_a_at) / Fold change /veh FAM167A (11723789_a_at) / RFU FAM26E (11764081_at) / Fold change /veh FAM26E (11764081_at) / RFU ISYNA1 (11749810_s_at) / Fold change /veh ISYNA1 (11749810_s_at) / RFU ACY1 (11761880_at) / Fold change /veh ACY1 (11761880_at) / RFU 11764098_at / Fold change /veh 11764098_at / RFU SAMD14 (11745864_x_at) / Fold change /veh SAMD14 (11745864_x_at) / RFU NPB (11741838_a_at) / Fold change /veh NPB (11741838_a_at) / RFU TMPRSS6 (11731388_a_at) / Fold change /veh TMPRSS6 (11731388_a_at) / RFU KRTAP10-2 (11738614_at) / Fold change /veh KRTAP10-2 (11738614_at) / RFU ARHGAP8 /// PRR5-ARHGAP8 (11727945_x_at) / Fold change /veh ARHGAP8 /// PRR5-ARHGAP8 (11727945_x_at) / RFU KRTAP5-7 /// NADSYN1 (11734609_at) / Fold change /veh KRTAP5-7 /// NADSYN1 (11734609_at) / RFU RASL12 (11751679_a_at) / Fold change /veh RASL12 (11751679_a_at) / RFU CDKN2B (11736163_a_at) / Fold change /veh CDKN2B (11736163_a_at) / RFU PRF1 (11729649_at) / Fold change /veh PRF1 (11729649_at) / RFU, ZNF638 /// ZNF638-IT1 / Fold change vs veh, ZNF638 /// ZNF638-IT1 / RFU, PANK3 / Fold change vs veh, PANK3 / RFU, SH3YL1 / Fold change vs veh, SH3YL1 / RFU, ZEB2 / Fold change vs veh, ZEB2 / RFU, NRIP1 / Fold change vs veh, NRIP1 / RFU, PTTG1IP / Fold change vs veh, PTTG1IP / RFU, CAPN2 / Fold change vs veh, CAPN2 / RFU, MED14 / Fold change vs veh, MED14 / RFU, SNORA58 / Fold change vs veh, SNORA58 / RFU, C1orf63 / Fold change vs veh, C1orf63 / RFU, LRRFIP1 / Fold change vs veh, LRRFIP1 / RFU, NDUFAF7 / Fold change vs veh, NDUFAF7 / RFU, SLC12A2 / Fold change vs veh, SLC12A2 / RFU, IBTK / Fold change vs veh, IBTK / RFU, ESF1 / Fold change vs veh, ESF1 / Fold change vs veh, TMEM50B / RFU, TAOK1 / Fold change vs veh, TAOK1 / RFU, ACBD3 / Fold change vs veh, ACBD3 / RFU, TMA16 / Fold change vs veh, TMA16 / RFU, RWDD3 / Fold change vs veh, RWDD3 / RFU, BCAT1 / Fold change vs veh, BCAT1 / RFU, EDEM3 / Fold change vs veh, EDEM3 / RFU, TMEM33 / Fold change vs veh, TMEM33 / RFU, WDR75 / Fold change vs veh, WDR75 / RFU, AHCTF1 / Fold change vs veh, AHCTF1 / RFU, TFRC / Fold change vs veh, TFRC / RFU, ZDHHC17 / Fold change vs veh, ZDHHC17 / RFU, NOM1 / Fold change vs veh, NOM1 / RFU, ARL8B / Fold change vs veh, ARL8B / RFU, ZBTB11 / Fold change vs veh, ZBTB11 / RFU, TAMM41 / Fold change vs veh, TAMM41 / RFU, KIAA1704 /// LOC100996395 / Fold change vs veh, KIAA1704 /// LOC100996395 / RFU, ING1 / Fold change vs veh, ING1 / RFU, TRMT61B / Fold change vs veh, TRMT61B / RFU, FUBP3 / Fold change vs veh, FUBP3 / RFU, TP53 / Fold change vs veh, TP53 / RFU, TNKS2 / Fold change vs veh, TNKS2 / RFU, ZFP14 / Fold change vs veh, ZFP14 / RFU, ACTR2 / Fold change vs veh, ACTR2 / RFU, PPP3R1 / Fold change vs veh, PPP3R1 / RFU, PIK3R1 / Fold change vs veh, PIK3R1 / RFU, HNRNPA1 / Fold change vs veh, HNRNPA1 / RFU, RNF170 / Fold change vs veh, RNF170 / RFU, ZNF28 / Fold change vs veh, ZNF28 / RFU, RNGTT / Fold change vs veh, RNGTT / RFU, OGT / Fold change vs veh, OGT / RFU, BRD1 / Fold change vs veh, BRD1 / RFU, MARS / Fold change vs veh, MARS / RFU, ZNF655 / Fold change vs veh, ZNF655 / RFU, FAHD1 / Fold change vs veh, FAHD1 / RFU, BDP1 / Fold change vs veh, BDP1 / RFU, LRRCC1 / Fold change vs veh, LRRCC1 / RFU, ARID1A / Fold change vs veh, ARID1A / RFU, ZNF146 / Fold change vs veh, ZNF146 / RFU, ZNF330 / Fold change vs veh, ZNF330 / RFU, GPN3 / Fold change vs veh, GPN3 / RFU, C9orf123 / Fold change vs veh, C9orf123 / RFU, N4BP2L2 / Fold change vs veh, N4BP2L2 / RFU, ARFIP1 / Fold change vs veh, ARFIP1 / RFU, FAM179B / Fold change vs veh, FAM179B / RFU, BCL10 / Fold change vs veh, BCL10 / RFU, UHRF1BP1L / Fold change vs veh, UHRF1BP1L / RFU, BET1 / Fold change vs veh, BET1 / RFU, CNOT2 / Fold change vs veh, CNOT2 / RFU, ZNF268 / Fold change vs veh, ZNF268 / Fold change vs veh, ZNF507 / RFU, DGCR2 / Fold change vs veh, DGCR2 / RFU, WDSUB1 / Fold change vs veh, WDSUB1 / Fold change vs veh, HSP90B1 /// MIR3652 / RFU, ADSS / Fold change vs veh, ADSS / RFU, GK / Fold change vs veh, GK / RFU, ZNF148 / Fold change vs veh, ZNF148 / RFU, TAF9 / Fold change vs veh, TAF9 / RFU, SLC1A5 / Fold change vs veh, SLC1A5 / RFU, SLMO2 / Fold change vs veh, SLMO2 / RFU, ABCC4 / Fold change vs veh, ABCC4 / RFU, LOC101060439 /// RAP1B / Fold change vs veh, LOC101060439 /// RAP1B / RFU, RFX7 / Fold change vs veh, RFX7 / RFU, GTPBP10 / Fold change vs veh, GTPBP10 / RFU, CNEP1R1 / Fold change vs veh, CNEP1R1 / RFU, BIVM-ERCC5 /// ERCC5 / Fold change vs veh, BIVM-ERCC5 /// ERCC5 / RFU, ILF3 / Fold change vs veh, ILF3 / RFU 11762660_at / Fold change /veh 11762660_at / RFU VCAN (11757783_s_at) / Fold change /veh VCAN (11757783_s_at) / RFU DDX43 (11728927_at) / Fold change /veh DDX43 (11728927_at) / RFU KRT8 (11758188_x_at) / Fold change /veh KRT8 (11758188_x_at) / RFU NKD1 (11759106_at) / Fold change /veh NKD1 (11759106_at) / RFU SRD5A1 (11742802_a_at) / Fold change /veh SRD5A1 (11742802_a_at) / RFU TPSAB1 /// TPSB2 (11721975_s_at) / Fold change /veh TPSAB1 /// TPSB2 (11721975_s_at) / RFU GSTM3 (11746129_a_at) / Fold change /veh GSTM3 (11746129_a_at) / RFU IL23R (11737362_x_at) / Fold change /veh IL23R (11737362_x_at) / RFU TMEM51 (11727254_a_at) / Fold change /veh TMEM51 (11727254_a_at) / RFU PIWIL2 (11732686_x_at) / Fold change /veh PIWIL2 (11732686_x_at) / RFU ORM1 (11744905_x_at) / Fold change /veh ORM1 (11744905_x_at) / RFU CCDC152 (11743942_at) / Fold change /veh CCDC152 (11743942_at) / RFU ECM1 (11717891_a_at) / Fold change /veh ECM1 (11717891_a_at) / RFU IL23R (11748794_a_at) / Fold change /veh IL23R (11748794_a_at) / RFU TNFAIP8L3 (11732012_x_at) / Fold change /veh TNFAIP8L3 (11732012_x_at) / RFU MBOAT4 (11741988_at) / Fold change /veh MBOAT4 (11741988_at) / RFU 11764193_at / Fold change /veh 11764193_at / RFU TMEM53 (11763286_at) / Fold change /veh TMEM53 (11763286_at) / RFU MAGEB2 (11727129_at) / Fold change /veh MAGEB2 (11727129_at) / RFU TMEM200A (11744735_a_at) / Fold change /veh TMEM200A (11744735_a_at) / RFU CCDC152 (11751479_a_at) / Fold change /veh CCDC152 (11751479_a_at) / RFU FAM211A (11726209_a_at) / Fold change /veh FAM211A (11726209_a_at) / RFU RGS16 (11746705_a_at) / Fold change /veh RGS16 (11746705_a_at) / RFU VCAN (11755009_s_at) / Fold change /veh VCAN (11755009_s_at) / RFU RHOB (11743442_s_at) / Fold change /veh RHOB (11743442_s_at) / RFU RGS16 (11720943_a_at) / Fold change /veh RGS16 (11720943_a_at) / RFU RGS16 (11720944_at) / Fold change /veh RGS16 (11720944_at) / RFU, VPS4B / Fold change vs veh, VPS4B / RFU, CREB1 / Fold change vs veh, CREB1 / RFU, DNAJC13 / Fold change vs veh, DNAJC13 / RFU, GNAQ / Fold change vs veh, GNAQ / RFU, CDK5R1 / Fold change vs veh, CDK5R1 / RFU, ZRANB3 / Fold change vs veh, ZRANB3 / RFU, CUL4A / Fold change vs veh, CUL4A / RFU, CCNY / Fold change vs veh, CCNY / RFU, UFL1 / Fold change vs veh, UFL1 / RFU, COG3 / Fold change vs veh, COG3 / RFU, DIAPH2 / Fold change vs veh, DIAPH2 / RFU, SKA2 / Fold change vs veh, SKA2 / RFU, AFF3 / Fold change vs veh, AFF3 / RFU, LMF1 / Fold change vs veh, LMF1 / RFU, IPO11 / Fold change vs veh, IPO11 / RFU, DFFB / Fold change vs veh, DFFB / RFU, FOXP1 / Fold change vs veh, FOXP1 / RFU, CARD8 / Fold change vs veh, CARD8 / RFU, STRN3 / Fold change vs veh, STRN3 / RFU, ADK / Fold change vs veh, ADK / RFU, RASSF2 / Fold change vs veh, RASSF2 / RFU, WIPF1 / Fold change vs veh, WIPF1 / RFU, LARP1B / Fold change vs veh, LARP1B / RFU, RASA1 / Fold change vs veh, RASA1 / RFU, RB1 / Fold change vs veh, RB1 / RFU, PPFIA1 / Fold change vs veh, PPFIA1 / RFU, MAT2A / Fold change vs veh, MAT2A / RFU, CCT5 / Fold change vs veh, CCT5 / RFU, WDR92 / Fold change vs veh, WDR92 / RFU, CUX1 / Fold change vs veh, CUX1 / RFU, TTC7A / Fold change vs veh, TTC7A / RFU, TMEM135 / Fold change vs veh, TMEM135 / RFU, DEPTOR / Fold change vs veh, DEPTOR / RFU, CPM / Fold change vs veh, CPM / RFU, DNAJB6 / Fold change vs veh, DNAJB6 / RFU, CACNA2D3 / Fold change vs veh, CACNA2D3 / RFU, DTX4 / Fold change vs veh, DTX4 / RFU, TFCP2 / Fold change vs veh, TFCP2 / RFU, GMCL1 /// GMCL1P1 / Fold change vs veh, GMCL1 /// GMCL1P1 / RFU, AEBP2 / Fold change vs veh, AEBP2 / RFU, SNHG1 /// SNORD22 /// SNORD25 /// SNORD26 /// SNORD27 /// SNORD28 /// SNORD29 /// SNORD31 / Fold change vs veh, SNHG1 /// SNORD22 /// SNORD25 /// SNORD26 /// SNORD27 /// SNORD28 /// SNORD29 /// SNORD31 / Fold change (Aza/veh), C12orf56 (ProbeSet 11735607_a_at) / Fold change (ACY-1035/veh), C12orf56 (ProbeSet 11735607_a_at) / Fold change (Aza/veh), FGFR1OP (ProbeSet 11751329_s_at) / Fold change (ACY-1035/veh), FGFR1OP (ProbeSet 11751329_s_at) / Fold change (Aza/veh), VPS36 (ProbeSet 11739960_a_at) / Fold change (ACY-1035/veh), VPS36 (ProbeSet 11739960_a_at) / RFU SYPL1 (11715823_x_at) / Fold change /veh SYPL1 (11715823_x_at) / RFU IGFBP7 (11715501_s_at) / Fold change /veh IGFBP7 (11715501_s_at) / RFU REEP3 (11722064_at) / Fold change /veh REEP3 (11722064_at) / RFU IGLL1 (11728026_x_at) / Fold change /veh IGLL1 (11728026_x_at): dose or concentration left out as unconfirmed
Conditions: ProbeSet 11757268_x_at; LIST B

Q: How did the “RFU, HNRNPA1” value turn out when `Nc1ccc(-c2cccs2)cc1NC(=O)c1ccc2c(c1)cc(C1CC1)n2CCN1CCOCC1` [ACY-1035] was run?
A: Its value is 4786.54 RFU.
